The values below come from patent US20110009381A1, “SOLUBILIZED THIAZOLOPYRIDINES” (Sirtis Pharmaceuticals, Inc., priority 2007, published 2011).

The experiment has as its target T1, SIRT1 (Homo sapiens, UniProt Q96EB6).
T1 sequence (Q96EB6 1-747): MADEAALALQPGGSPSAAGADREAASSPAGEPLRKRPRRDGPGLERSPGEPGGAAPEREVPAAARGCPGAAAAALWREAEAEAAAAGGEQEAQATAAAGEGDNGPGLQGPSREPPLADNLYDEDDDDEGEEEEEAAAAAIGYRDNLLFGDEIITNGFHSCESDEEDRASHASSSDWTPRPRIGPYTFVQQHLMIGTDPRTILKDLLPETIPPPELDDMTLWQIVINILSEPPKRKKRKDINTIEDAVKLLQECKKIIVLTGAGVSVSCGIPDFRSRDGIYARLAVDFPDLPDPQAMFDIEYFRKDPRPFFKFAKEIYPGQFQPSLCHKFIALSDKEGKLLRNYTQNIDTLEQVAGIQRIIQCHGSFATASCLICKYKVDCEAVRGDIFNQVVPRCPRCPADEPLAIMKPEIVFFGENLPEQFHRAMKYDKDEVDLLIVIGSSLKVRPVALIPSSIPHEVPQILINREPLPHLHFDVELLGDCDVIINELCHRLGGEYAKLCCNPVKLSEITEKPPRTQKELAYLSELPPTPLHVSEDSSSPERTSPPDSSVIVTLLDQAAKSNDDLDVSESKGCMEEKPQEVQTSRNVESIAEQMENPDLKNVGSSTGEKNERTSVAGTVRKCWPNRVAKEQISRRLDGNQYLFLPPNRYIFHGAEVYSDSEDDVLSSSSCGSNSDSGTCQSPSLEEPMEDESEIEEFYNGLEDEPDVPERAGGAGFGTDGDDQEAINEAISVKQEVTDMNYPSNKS
Briefly: Mass spectrometry based assay to identify modulators of SIRT1 activity (deacetylation of p53-based acetylated peptide substrate). It is filed as biochemical. The settings on record: 10 nM SIRT1, 0.5 μM peptide substrate, 120 μM βNAD+, 25 minutes at 25° C.; for EC1.5: SIRT1 activation. Summed up:
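Activation measured on His-tagged SIRT1 (10 nM, E. coli-expressed) deacetylating a 0.5 μM p53-derived acetyl-peptide with 120 μM βNAD^+ for 25 min at 25 °C, pH 8 Tris-acetate. After formic acid stop, mass spectrometry quantified acetylated versus deacetylated peptide, referenced to DMSO and nicotinamide controls. Reported as EC1.5 and maximum fold activation.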

With `CCCN1CCC(Nc2cc(C(=O)Nc3ccccc3-c3nc4cccnc4s3)nc(-c3ccccc3)n2)CC1` [Compound 101], the “FOLD ACT. (percent maximum fold activation)” value is listed as “A (Fold activation≧300%)” and the EC1.5 entry is listed as “A′ (EC1.5<250 nM)”.

For the compound `O=C(Nc1ccccc1-c1nc2cccnc2s1)c1cc(OCCCO)nc(-c2ccccc2)n1` [Compound 102], the “FOLD ACT. (percent maximum fold activation)” value was “B (Fold Activation≧150% and <300%)”; the EC1.5 entry is “A (EC1.5≧250 nM and ≦1 uM)”.

Consider `O=C(Nc1ccccc1-c1nc2cccnc2s1)c1cc(OCCCCO)nc(-c2ccccc2)n1` [Compound 103], for which the “FOLD ACT. (percent maximum fold activation)” value was “B (Fold Activation≧150% and <300%)”; the EC1.5 result is given as “C (EC1.5>10 uM)”.

For the compound `O=C(Nc1ccccc1-c1nc2cccnc2s1)c1cc(NC2CCNC2)nc(-c2ccccc2)n1` (stereo not shown) [Compound 104], the “FOLD ACT. (percent maximum fold activation)” value is listed as “A (Fold activation≧300%)” and the EC1.5 entry is on record as “A′ (EC1.5<250 nM)”.

`O=C(Nc1ccccc1-c1nc2cccnc2s1)c1cc(NC[C@H](O)CO)nc(-c2ccccc2)n1` [Compound 105]: the “FOLD ACT. (percent maximum fold activation)” value is listed as “A (Fold activation≧300%)” and the EC1.5 result is on record as “A′ (EC1.5<250 nM)”.

As for `O=C(Nc1ccccc1-c1nc2cccnc2s1)c1cc(NC[C@@H](O)CO)nc(-c2ccccc2)n1` [Compound 106], the “FOLD ACT. (percent maximum fold activation)” value is on record as “A (Fold activation≧300%)” and the EC1.5 result is reported as “A′ (EC1.5<250 nM)”.

`O=C(Nc1ccccc1-c1nc2cccnc2s1)c1cc(OC[C@H](O)CO)nc(-c2ccccc2)n1` [Compound 107]: the “FOLD ACT. (percent maximum fold activation)” value is “B (Fold Activation≧150% and <300%)”; the EC1.5 result was “A (EC1.5≧250 nM and ≦1 uM)”.

Take `O=C(Nc1ccccc1-c1nc2cccnc2s1)c1cc(OC[C@@H](O)CO)nc(-c2ccccc2)n1` [Compound 108]: the “FOLD ACT. (percent maximum fold activation)” value is “B (Fold Activation≧150% and <300%)”; the EC1.5 entry is listed as “A′ (EC1.5<250 nM)”.

As for `O=C(Nc1ccccc1-c1nc2cccnc2s1)c1cc(NCC2CCCNC2)nc(-c2ccccc2)n1` (stereo not shown) [Compound 109], the “FOLD ACT. (percent maximum fold activation)” value is on record as “A (Fold activation≧300%)” and the EC1.5 entry is “A′ (EC1.5<250 nM)”.

Take `CN(C)CCNc1cc(C(=O)Nc2ccccc2-c2nc3cccnc3s2)nc(-c2ccccc2)c1` [Compound 110]: the “FOLD ACT. (percent maximum fold activation)” value is “A (Fold activation≧300%)” and the EC1.5 result is on record as “A′ (EC1.5<250 nM)”.

Consider `Cc1ccc(-c2nc(NCCN(C)C)cc(C(=O)Nc3ccccc3-c3nc4cccnc4s3)n2)cc1` [Compound 111], for which the “FOLD ACT. (percent maximum fold activation)” value is on record as “A (Fold activation≧300%)” and the EC1.5 result is on record as “A′ (EC1.5<250 nM)”.

As for `Cc1cccc(-c2nc(NCCN(C)C)cc(C(=O)Nc3ccccc3-c3nc4cccnc4s3)n2)c1` [Compound 112], the “FOLD ACT. (percent maximum fold activation)” value is given as “A (Fold activation≧300%)” and the EC1.5 entry is given as “A′ (EC1.5<250 nM)”.

Regarding `O=C(Nc1ccccc1-c1nc2cccnc2s1)c1cc(NC2CCN(Cc3ccccc3)CC2)nc(-c2ccccc2)n1` [Compound 113], the “FOLD ACT. (percent maximum fold activation)” value is “B (Fold Activation≧150% and <300%)”; the EC1.5 entry is “A (EC1.5≧250 nM and ≦1 uM)”.

Consider `CC(C)N1CCC(Nc2cc(C(=O)Nc3ccccc3-c3nc4cccnc4s3)nc(-c3ccccc3)n2)CC1` [Compound 114], for which the “FOLD ACT. (percent maximum fold activation)” value is “A (Fold activation≧300%)” and the EC1.5 entry is reported as “A′ (EC1.5<250 nM)”.

Regarding `O=C(Nc1ccccc1-c1nc2cccnc2s1)c1cc(NC2CCN(c3ccccn3)CC2)nc(-c2ccccc2)n1` [Compound 115], the “FOLD ACT. (percent maximum fold activation)” value is on record as “C (Fold Activation<150%)” and the EC1.5 entry is “C (EC1.5>10 uM)”.

As for `CC(=O)N1CCC(Nc2cc(C(=O)Nc3ccccc3-c3nc4cccnc4s3)nc(-c3ccccc3)n2)CC1` [Compound 116], the “FOLD ACT. (percent maximum fold activation)” value is listed as “A (Fold activation≧300%)” and the EC1.5 entry is recorded as “A′ (EC1.5<250 nM)”.

Consider `CC(C)C(=O)N1CCC(Nc2cc(C(=O)Nc3ccccc3-c3nc4cccnc4s3)nc(-c3ccccc3)n2)CC1` [Compound 117], for which the “FOLD ACT. (percent maximum fold activation)” value is “A (Fold activation≧300%)” and the EC1.5 result is recorded as “A′ (EC1.5<250 nM)”.

On to `O=C(Nc1ccccc1-c1nc2cccnc2s1)c1cc(NC2CCN(C3CC3)CC2)nc(-c2ccccc2)n1` [Compound 118], for which the “FOLD ACT. (percent maximum fold activation)” value was “A (Fold activation≧300%)” and the EC1.5 result is recorded as “A′ (EC1.5<250 nM)”.

As to `O=C(Nc1ccccc1-c1nc2cccnc2s1)c1cc(N2CCNCC2)cc(-c2ccccc2)n1` [Compound 119], the “FOLD ACT. (percent maximum fold activation)” value is recorded as “A (Fold activation≧300%)” and the EC1.5 result is “A′ (EC1.5<250 nM)”.

With `O=C(Nc1ccccc1-c1nc2cccnc2s1)c1cc(N2CCN3CCC[C@H]3C2)nc(-c2ccccc2)n1` [Compound 120], the “FOLD ACT. (percent maximum fold activation)” value is listed as “A (Fold activation≧300%)”; the EC1.5 entry is “A (EC1.5≧250 nM and ≦1 uM)”.

For `CNCCNc1cc(C(=O)Nc2ccccc2-c2nc3cccnc3s2)nc(-c2ccccc2)n1` [Compound 121], the “FOLD ACT. (percent maximum fold activation)” value is “A (Fold activation≧300%)” and the EC1.5 result is recorded as “A′ (EC1.5<250 nM)”.

Take `CS(=O)(=O)NCCOc1cc(C(=O)Nc2ccccc2-c2nc3cccnc3s2)nc(-c2ccccc2)n1` [Compound 122]: the “FOLD ACT. (percent maximum fold activation)” value was “B (Fold Activation≧150% and <300%)”; the EC1.5 entry is “A (EC1.5≧250 nM and ≦1 uM)”.

As for `CC(C)N1CCN(c2cc(C(=O)Nc3ccccc3-c3nc4cccnc4s3)nc(-c3ccccc3)c2)CC1` [Compound 123], the “FOLD ACT. (percent maximum fold activation)” value is “A (Fold activation≧300%)” and the EC1.5 result is on record as “A′ (EC1.5<250 nM)”.

`COCCN1CCN(c2cc(C(=O)Nc3ccccc3-c3nc4cccnc4s3)nc(-c3ccccc3)c2)CC1` [Compound 124]: the “FOLD ACT. (percent maximum fold activation)” value was “A (Fold activation≧300%)” and the EC1.5 entry is recorded as “A′ (EC1.5<250 nM)”.

For the compound `CC(C)(C)N1CCC(Nc2cc(C(=O)Nc3ccccc3-c3nc4cccnc4s3)nc(-c3ccccc3)n2)CC1` [Compound 125], the “FOLD ACT. (percent maximum fold activation)” value is recorded as “A (Fold activation≧300%)” and the EC1.5 entry is reported as “A′ (EC1.5<250 nM)”.

Turning to `O=C(Nc1ccccc1-c1nc2cccnc2s1)c1cc(OC[C@H](O)CO)cc(-c2ccccc2)n1` [Compound 126], the “FOLD ACT. (percent maximum fold activation)” value is listed as “A (Fold activation≧300%)” and the EC1.5 result is recorded as “A′ (EC1.5<250 nM)”.

`O=C(Nc1ccccc1-c1nc2cccnc2s1)c1cc(OC[C@@H](O)CO)cc(-c2ccccc2)n1` [Compound 127]: the “FOLD ACT. (percent maximum fold activation)” value was “A (Fold activation≧300%)”; the EC1.5 entry was “A (EC1.5≧250 nM and ≦1 uM)”.

As to `O=C(Nc1ccccc1-c1nc2cccnc2s1)c1cc(NC(CO)CO)cc(-c2ccccc2)n1` [Compound 128], the “FOLD ACT. (percent maximum fold activation)” value is “A (Fold activation≧300%)” and the EC1.5 entry is reported as “A′ (EC1.5<250 nM)”.

With `O=C(Nc1ccccc1-c1nc2cccnc2s1)c1cc(N2CCOCC2)cc(-c2ccccc2)n1` [Compound 129], the “FOLD ACT. (percent maximum fold activation)” value is “A (Fold activation≧300%)” and the EC1.5 entry was “A′ (EC1.5<250 nM)”.

For the compound `COCCN(CCOC)c1cc(C(=O)Nc2ccccc2-c2nc3cccnc3s2)nc(-c2ccccc2)c1` [Compound 130], the “FOLD ACT. (percent maximum fold activation)” value was “A (Fold activation≧300%)” and the EC1.5 result is listed as “A′ (EC1.5<250 nM)”.

On to `COCCNc1cc(C(=O)Nc2ccccc2-c2nc3cccnc3s2)nc(-c2ccccc2)c1` [Compound 131], for which the “FOLD ACT. (percent maximum fold activation)” value is recorded as “A (Fold activation≧300%)” and the EC1.5 result is “A′ (EC1.5<250 nM)”.

Turning to `Cc1cccc(-c2nc(NCCN3CCCCC3)cc(C(=O)Nc3ccccc3-c3nc4cccnc4s3)n2)c1` [Compound 132], the “FOLD ACT. (percent maximum fold activation)” value is “A (Fold activation≧300%)” and the EC1.5 result is on record as “A′ (EC1.5<250 nM)”.

As for `Cc1cccc(-c2nc(NCCN3CCOCC3)cc(C(=O)Nc3ccccc3-c3nc4cccnc4s3)n2)c1` [Compound 133], the “FOLD ACT. (percent maximum fold activation)” value is “A (Fold activation≧300%)” and the EC1.5 result is listed as “A′ (EC1.5<250 nM)”.

For the compound `Cc1cccc(-c2nc(NC(CO)CO)cc(C(=O)Nc3ccccc3-c3nc4cccnc4s3)n2)c1` [Compound 134], the “FOLD ACT. (percent maximum fold activation)” value is reported as “A (Fold activation≧300%)” and the EC1.5 entry is “A′ (EC1.5<250 nM)”.

On to `CS(=O)(=O)N1CCC(Nc2cc(C(=O)Nc3ccccc3-c3nc4cccnc4s3)nc(-c3ccccc3)n2)CC1` [Compound 135], for which the “FOLD ACT. (percent maximum fold activation)” value is listed as “A (Fold activation≧300%)” and the EC1.5 result is “A′ (EC1.5<250 nM)”.
